Tested on: tyrosinase activity of normal human melanocytes
Experiment: Effect on the tyrosinase activity of normal human melanocytes in culture (L-Dopa substrate, absorbance 450 nm)
Assay type: cell-based
Details: 72 hours, normal human epidermal melanocytes
Experimental: Melanocyte Culture Conditions:
Normal human epidermal melanocytes are cultured (9th passage) in “melanocytes growth medium M2” supplemented with Promocell C24300 supplements 50 IU/ml of penicillin and 50 μg/ml of streptomycin (Invitrogen) under standard temperature conditions (37° C.) and 5% CO2.
Preparation of the Solutions of the Test Compound:
The compound is dissolved in absolute ethanol (PGE2) or in DMSO (15-PGDH inhibitors). The final titer of the prepared solutions is 10 mM. The final test concentrations range from 0.1 to 10 μM (PGE2) and 1 to 10 μM (15-PGDH inhibitors).
The tests performed consist in measuring the inhibitory effect on 15-PGDH alone or combined with PGE2* on the overall activity of tyrosinase.
PGE2 is a pigmentation modulator that is deactivated by the enzyme 15-PGDH.
The melanocytes are cultured in 96-well plates, to the point of confluence (culture conditions described in a), and the supernatant of each of the wells is then removed and replaced with medium containing the compounds to be evaluated, i.e., (in triplicate) the 15-PGDH inhibitor alone at 1 μM and 10 μM or for each of these first conditions in the presence of 0.1 μM, 1 μM or 10 μM of PGE2.
The cultures are maintained under these various conditions for 72 hours, the supernatants are then removed and the cell carpets are washed with a phosphate buffer (pH=7.2). The cells are lysed with a pH 7.2 phosphate buffer containing 1% Triton X100.
The tyrosinase activity of each of the lysates is then estimated against a fungal tyrosinase range (Sigma T7755).
The methodology employed uses L-Dopa as reaction substrate (45 minutes at 37° C.), and the formation of melanin is assessed by measuring the absorbance at 450 nm.
In this test, two references are also evaluated: kojic acid (a tyrosinase inhibitor introduced at 0.1% into the culture medium) and isobutylmethylxanthine (IBMX), a phosphodiesterase inhibitor which, by limiting the catabolism of cAMP, contributes towards increasing the overall tyrosinase activity as assessed in this test.

stimulation of the activity of tyrosinase (PGE2 alone at 1 μM)	stimulation of the activity of tyrosinase (PGE2 alone at 10 μM)	Compound	stimulation of the tyrosinase activity (Compound 23 (1 μM) + PGE2 (1 μM))	stimulation of the tyrosinase activity (Compound 23 (1 μM) + PGE2 (10 μM))
		O=C(COc1cccc(Cl)c1)NCc1ccco1 [Compound 23, 2-(3-chlorophenoxy)-N-furan-2-ylmethylacetamide]	31%	28%
9%	15%	CCCCC[C@H](O)/C=C/[C@H]1[C@H](O)CC(=O)[C@@H]1C/C=C\CCCC(=O)O [PGE2, prostaglandin E2]		
